Test results taken from PubChem BioAssay (NCI).
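Here, GI50 denotes the concentration required for 50% inhibition of growth. TGI: total growth inhibition.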

Legend:
Assay in all cases: DTP human tumour cell line panel, 384-well format
A549 NSCLC = test system: A549 NSCLC
CCRF-CEM leukemia = test system: CCRF-CEM leukemia
HCT-116 colon = test system: HCT-116 colon
HOP-92 NSCLC = test system: HOP-92 NSCLC
HT29 colon = test system: HT29 colon
MALME-3M melanoma = test system: MALME-3M melanoma
MDA-MB-435 melanoma = test system: MDA-MB-435 melanoma
NCI-H226 lung = test system: NCI-H226 lung
NCI-H460 NSCLC = test system: NCI-H460 NSCLC
NCI/ADR-RES ovarian = test system: NCI/ADR-RES ovarian
SK-MEL-2 melanoma = test system: SK-MEL-2 melanoma
SK-MEL-5 melanoma = test system: SK-MEL-5 melanoma
SR leukemia = test system: SR leukemia

COc1nn(C)cc1Nc1nccc(-c2c[nH]c3c(NC(=O)[C@@H](C)N4CCN(C)CC4)cccc23)n1
GI50 (A549 NSCLC): 25.7 µM | TGI (A549 NSCLC): > 59.9 µM | GI50 (CCRF-CEM leukemia): 15.9 µM | TGI (CCRF-CEM leukemia): 29.4 µM | GI50 (HCT-116 colon): 19.8 µM | TGI (HCT-116 colon): 43.2 µM | GI50 (HOP-92 NSCLC): 20.4 µM | TGI (HOP-92 NSCLC): 47.6 µM | GI50 (HT29 colon): 17.7 µM | TGI (HT29 colon): 32.8 µM | GI50 (MALME-3M melanoma): 14.9 µM | TGI (MALME-3M melanoma): 29.2 µM | GI50 (MDA-MB-435 melanoma): 13.5 µM | TGI (MDA-MB-435 melanoma): 30.8 µM | GI50 (NCI-H226 lung): 9.15 µM | TGI (NCI-H226 lung): 31.6 µM | GI50 (NCI-H460 NSCLC): 25.4 µM | TGI (NCI-H460 NSCLC): > 77 µM | GI50 (NCI/ADR-RES ovarian): 45.4 µM | TGI (NCI/ADR-RES ovarian): > 100 µM | GI50 (SK-MEL-2 melanoma): 14.7 µM | TGI (SK-MEL-2 melanoma): 29.5 µM | GI50 (SK-MEL-5 melanoma): 14.5 µM | TGI (SK-MEL-5 melanoma): 28.3 µM | GI50 (SR leukemia): 9.69 µM | TGI (SR leukemia): 21.5 µM
